Measured values published in patent US8211903B2, “Substituted pyrimido isoquinoline derivatives” (Mitsubishi Tanabe Pharma Corporation, priority 2008, dated 2012).
Structures can show the parent of a compound that is named as a salt.

biological target: GSK3β (Homo sapiens, UniProt P49841); test: Inhibitory activity against GSK3β (33P-ATP phosphorylation of prephosphorylated GS1 peptide); assay type: biochemical; conditions: protocol 3: 7.5 μM GS1 peptide, 10 μM ATP, 50 mM Hepes pH 7.2, one hour at room temperature
Protocol: Four different protocols can be used.
In a first protocol: 7.5 μM of prephosphorylated GS1 peptide and 10 μM ATP (containing 300,000 cpm of ^33P-ATP) were incubated in 25 mM Tris-HCl, pH 7.5, 0.6 mM DTT, 6 mM MgCl2, 0.6 mM EGTA, 0.05 mg/ml BSA buffer for 1 hour at room temperature in the presence of GSK3beta (total reaction volume: 100 microliters).
In a second protocol: 4.1 μM of prephosphorylated GS1 peptide and 42 μM ATP (containing 260,000 cpm ^33P-ATP) were incubated in 80 mM Mes-NaOH, pH 6.5, 1 mM Mg acetate, 0.5 mM EGTA, 5 mM 2-mercaptoethanol, 0.02% Tween 20, 10% glycerol buffer for 2 hours at room temperature in the presence of GSK3beta.
In a third protocol: 7.5 μM of prephosphorylated GS1 peptide and 10 μM ATP (containing 300,000 cpm of ^33P-ATP) were incubated in 50 mM Hepes, pH 7.2, 1 mM DTT, 1 mM MgCl2, 1 mM EGTA, 0.01% Tween 20 buffer for one hour at room temperature in the presence of GSK3beta (total reaction volume: 100 microliters). […]
The reaction was stopped with 100 microliters of a solution made of 25 g polyphosphoric acid (85% P2O5), 126 ml 85% H3PO4, H2O to 500 ml and then diluted to 1:100 before use. […] Incorporated ^33P radioactivity was determined by liquid scintillation spectrometry. […]

Sequence of GSK3β (P49841 whole entry): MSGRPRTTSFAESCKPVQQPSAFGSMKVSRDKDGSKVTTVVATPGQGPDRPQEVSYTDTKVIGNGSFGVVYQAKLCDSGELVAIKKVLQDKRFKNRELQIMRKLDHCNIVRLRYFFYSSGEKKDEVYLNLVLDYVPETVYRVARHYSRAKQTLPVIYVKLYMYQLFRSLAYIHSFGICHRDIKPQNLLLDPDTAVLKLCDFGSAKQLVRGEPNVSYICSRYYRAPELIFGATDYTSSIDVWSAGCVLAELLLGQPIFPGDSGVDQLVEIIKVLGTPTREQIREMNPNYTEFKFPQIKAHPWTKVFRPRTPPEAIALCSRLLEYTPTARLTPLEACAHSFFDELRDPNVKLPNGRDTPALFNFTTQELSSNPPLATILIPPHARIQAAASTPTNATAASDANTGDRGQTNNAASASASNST

IC50 [nM]	SMILES
330	O=c1cc(-c2ccncc2)nc2c3ccccc3ccn12 [compound 1, 2-Pyridin-4-yl-pyrimido[2,1-a]isoquinolin-4-one]
170	Nc1cccc2c1ccn1c(=O)cc(-c3ccncc3)nc21 [compound 5, 8-Amino-2-pyridin-4-yl-pyrimido[2,1-a]isoquinolin-4-one]

system: not given; test: not given; conditions: not given

melting point [°C]	SMILES
302 to 304	COc1ccc2ccn3c(=O)cc(-c4ccncn4)nc3c2c1 [compound 7, 10-Methoxy-2-pyrimidin-4-yl-pyrimido[2,1-a]isoquinolin-4-one]
329 to 331	Nc1cccc2c1ccn1c(=O)cc(-c3ccncc3)nc21 [compound 5, 8-Amino-2-pyridin-4-yl-pyrimido[2,1-a]isoquinolin-4-one]
271 to 273	COc1cc2c(cc1OC)-c1nc(-c3ccncc3)cc(=O)n1CC2 [compound 9, 9,10-Dimethoxy-2-pyridin-4-yl-6,7-dihydro-pyrimido[2,1-a]isoquinolin-4-one]
270 to 272	O=c1cc(-c2ccncc2)nc2c3cccc([N+](=O)[O-])c3ccn12 (as salt: hydrochloride) [compound 4, 8-Nitro-2-pyridin-4-yl-pyrimido[2,1-a]isoquinolin-4-one]
368 to 370	O=c1cc(-c2ccncc2)nc2c3cc(O)ccc3ccn12 (as salt: oxalate) [compound 6, 10-Hydroxy-2-pyridin-4-yl-pyrimido[2,1-a]isoquinolin-4-one]
